From patent US10856563B2, “N-acyl-amino acid derivatives for improvement of the flavor profile of edible compositions” (Givaudan S.A., priority 2012, dated 2020) come the findings set out here.

Assay [1] in a line: Test on Tang (high intensity sweetener HIS masking), evaluation by expert tasters. To be noted: versus base. The protocol: In an orange flavoured Tang powdered soft drink (market product) sweetened with sucrose plus high intensity sweetener (aspartame and acesulfame-K) and containing citric acid, C18:2-gaba and C18:2-pro were tested.
All samples were evaluated by expert tasters. Tasters were asked to describe the samples focusing on authentic taste, masking off notes of high intensity sweetener, mouthfeel & body, enhancement, richness, juiciness, long lastingness, salivation, sweetness
Base is Orange flavoured Tang
Base: sweet, orange, licorice, and lingering high intensity sweetener off-notes, bitter, thin

A short description of assay [2]: Test on soy milk (soy protein masking), evaluation by expert tasters. To be noted: 2 ppm in soy milk (1.8% fat), 5% sucrose, milk flavour 0.1%. The protocol:
In a soy milk (1.8% fat) sweetened with 5% sucrose by weight, flavoured with a proprietary milk flavour at a dosage of 0.1%, C18:2-gaba was added at 2 ppm
Samples were evaluated by expert tasters. Tasters were asked to describe the samples focusing on authentic taste, masking of soy protein off notes, mouthfeel, fullness, salivation, sweetness, richness, long lastingness and fattiness.
Soy milk, 5% sucrose, milk flavor @ 0.1%: sweet, dry, green, soy bean taste

Assay [3] is described as follows: Test on liquid margarine (KCL masking), evaluation by expert tasters. To be noted: 2 ppm in Blueband liquid margarine, 0.8% KCL, proprietary masking flavour 0.01%. How it is done:
In Blueband liquid margarine (market product) with added KCL 0.8% and a proprietary masking flavour @ 0.01% 18:2 gaba was added at 2 ppm.
Samples were evaluated by expert tasters. Tasters were asked to describe the samples focusing on authentic taste, masking of KCL off notes, mouthfeel, saltiness, fullness, salivation, long lastingness and fattiness.
Base is Blueband, 0.8% KCL, proprietary masking @ 0.01%
Base: metallic, buttery, bitter and soapy

`CCCCC/C=C\C/C=C\CCCCCCCC(=O)NCCCC(=O)O` [C18:2-gaba]: the “masking off notes of high intensity sweetener” value in assay [1] (0.5 ppm in orange flavoured Tang (sucrose, aspartame, acesulfame-K, citric acid)) is given as “the off-notes of the high intensity sweetener were suppressed”. The “taste description (enhancement, juiciness, mouthfeel)” value in assay [1] (0.5 ppm in orange flavoured Tang) is “the sweet juicy orange notes and mouthfeel are enhanced”. In assay [2], the “masking of soy protein off notes” value is “good reduction of the undesirable soy bean off-taste”; the “taste description (richness, mouthfeel, fattiness)” value is “clean, rich, creamy and milky”. In assay [3], the authentic taste entry is recorded as “more authentic butter”; the “masking of KCL off notes” value was “less metallic and bitter notes”; the saltiness and mouthfeel entry is reported as “more saltiness, more mouthfeel”.

Turning to `CCCCC/C=C\C/C=C\CCCCCCCC(=O)N1CCC[C@H]1C(=O)O` [C18:2-Pro, N-linoleoyl-Pro], the “masking off notes of high intensity sweetener” value in assay [1] (1 ppm in orange flavoured Tang (sucrose, aspartame, acesulfame-K, citric acid)) is on record as “the off-notes of the high intensity sweetener were suppressed”. Besides, the “taste description (enhancement, juiciness, authentic taste)” value in assay [1] (1 ppm in orange flavoured Tang) is “the fresh, sweet juicy orange notes are enhanced, characteristic of authentic fresh orange fruit”.
